In ChEMBL document CHEMBL1933036, “Chromenones as potent bradykinin B1 antagonists” (Bioorg Med Chem Lett, 2012):

Legend:
[1] = Clearance in rat at 2 mg/kg, iv; format: ADME, organism-based; parameters: dose 2 mg/kg, route intravenous; conditions: in vivo
[2] = Volume of distribution at steady state in rat at 2 mg/kg, iv; format: ADME, organism-based; parameters: dose 2 mg/kg, route intravenous; conditions: in vivo, read-out: Vdss
[3] = Half life in rat at 2 mg/kg, iv; format: ADME, organism-based; parameters: dose 2 mg/kg, route intravenous; conditions: in vivo
B1 bradykinin receptor [4] = target: T1, B1 bradykinin receptor (Oryctolagus cuniculus, UniProt P48748); assay: Antagonist activity at rabbit B1 bradykinin receptor expressed in CHO cells; format: functional, cell-based
T1 sequence (P48748 whole entry): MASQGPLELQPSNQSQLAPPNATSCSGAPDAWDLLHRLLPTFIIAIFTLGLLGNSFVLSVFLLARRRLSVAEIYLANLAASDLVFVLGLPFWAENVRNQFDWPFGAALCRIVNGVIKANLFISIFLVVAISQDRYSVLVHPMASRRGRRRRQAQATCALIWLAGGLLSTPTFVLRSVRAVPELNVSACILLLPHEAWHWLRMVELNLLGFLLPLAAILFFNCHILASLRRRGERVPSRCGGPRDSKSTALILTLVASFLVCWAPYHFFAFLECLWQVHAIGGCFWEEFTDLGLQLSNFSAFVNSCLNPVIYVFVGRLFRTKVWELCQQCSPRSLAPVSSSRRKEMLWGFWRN

B1 bradykinin receptor [5] = target: T2, B1 bradykinin receptor (Homo sapiens, UniProt P46663); assay: Binding affinity to human B1 bradykinin receptor
T2 sequence (P46663 whole entry): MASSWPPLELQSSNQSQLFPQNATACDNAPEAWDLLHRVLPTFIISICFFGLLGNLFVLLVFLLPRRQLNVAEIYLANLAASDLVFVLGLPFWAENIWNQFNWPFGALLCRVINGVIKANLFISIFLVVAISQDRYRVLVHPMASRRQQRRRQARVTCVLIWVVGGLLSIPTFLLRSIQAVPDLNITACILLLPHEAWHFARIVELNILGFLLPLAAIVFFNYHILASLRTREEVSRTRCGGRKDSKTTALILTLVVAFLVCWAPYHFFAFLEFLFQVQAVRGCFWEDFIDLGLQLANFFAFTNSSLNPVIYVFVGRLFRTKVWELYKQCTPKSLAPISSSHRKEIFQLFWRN

B1 bradykinin receptor [6] = target: T2, B1 bradykinin receptor; assay: Antagonist activity at human B1 bradykinin receptor expressed in CHO cells by aqueorin-based calcium flux assay; format: functional, cell-based
[7] = Oral bioavailability in rat at 2 mg/kg; format: ADME, organism-based; conditions: in vivo
[8] = Oral bioavailability in rat at 5 mg/kg; format: ADME, organism-based; conditions: in vivo
Oryctolagus cuniculus = assay: Analgesic activity in New Zealand white rabbit mechanical hyperalgesia model assessed as reduction in carrageenan-induced paw withdrawal at 10 mg/kg, sc administered 60 mins before carrageenan challenge measured after 3 hrs; format: functional; parameters: scale not given: the % may be the effect or the level left; conditions: route subcutaneous
[9] = Plasma concentration in New Zealand white rabbit carrageenan-induced mechanical hyperalgesia model at 10 mg/kg, sc administered 60 mins before carrageenan challenge measured after 3 hrs; format: ADME, organism-based, Oryctolagus cuniculus; parameters: dose 10 mg/kg, route subcutaneous

Structure (SMILES)	IC50 (B1 bradykinin receptor [4]) [nM]	Ki (B1 bradykinin receptor [5]) [nM]	IC50 (B1 bradykinin receptor [6]) [nM]	further results
O=C(N[C@H]1CCCc2cc(CN3CCCCC3)ccc21)c1ccc(-c2coc3ccc(Cl)cc3c2=O)cc1	> 4000	1620	> 4000	
O=C(N[C@@H]1CCCc2cc(CN3CCCCC3)ccc21)c1cccc(-c2coc3c(Cl)cccc3c2=O)c1	> 800	322	188	
O=C(N[C@H]1CCCc2cc(CN3CCCCC3)ccc21)c1ccc(-c2coc3cc(Cl)ccc3c2=O)cc1	> 800	42	264	
Cc1nn(-c2cccc(C(=O)N[C@@H]3CCCc4cc(CN5CCCCC5)ccc43)c2)c(=O)c2ccccc12	> 6460		3400	
O=C(N[C@H]1CCCc2cc(CN3CCCCC3)ccc21)c1ccc(-c2coc3c(Cl)cccc3c2=O)cc1	> 4000	481	186	
O=C(N[C@@H]1CCCc2cc(CN3CCCCC3)ccc21)c1cccc(-c2coc3cc(Cl)ccc3c2=O)c1	> 800		799	

Second part, led by results:

IC50 (B1 bradykinin receptor [4]) [nM]	Ki (B1 bradykinin receptor [5]) [nM]	IC50 (B1 bradykinin receptor [6]) [nM]	Structure (SMILES)	further results
24	17	12	O=C(N[C@H]1CCCc2cc(CN3CCCCC3)ccc21)c1ccc(-c2coc3cccc(F)c3c2=O)cc1	clearance [1]: 25.5 mL/min/kg; Vd [2]: 8.83 L/kg; half-life [3]: 3.8 h; bioavailability [7]: 27.9%
30	4	4	O=C(N[C@H]1CCCc2cc(CN3CCCCC3)ccc21)c1ccc(-c2coc3cccc(Cl)c3c2=O)cc1	clearance [1]: 17.7 mL/min/kg; Vd [2]: 6.67 L/kg; half-life [3]: 4.5 h; bioavailability [8]: 43.6%; Activity (Oryctolagus cuniculus): 65%; concentration at 3 h [9]: 379 nM
139	15	66	Cc1cccc2occ(-c3ccc(C(=O)N[C@H]4CCCc5cc(CN6CCCCC6)ccc54)cc3)c(=O)c12	
248	29	17	O=C(N[C@@H]1CCCc2cc(CN3CCCCC3)ccc21)c1cccc(-c2coc3cccc(Cl)c3c2=O)c1	
98	43	7	Cc1nn(-c2ccc(C(=O)N[C@H]3CCCc4cc(CN5CCCCC5)ccc43)cc2)c(=O)c2ccccc12	
122			O=C(N[C@H]1CCCc2cc(CN3CCCCC3)ccc21)c1ccc(-c2coc3ccccc3c2=O)cc1	
> 160	767	279	O=C(N[C@@H]1CCCc2cc(CN3CCCCC3)ccc21)c1cccc(-c2coc3ccc(Cl)cc3c2=O)c1	
476		112	O=C(N[C@@H]1CCCc2cc(CN3CCCCC3)ccc21)c1cccc(-c2coc3ccccc3c2=O)c1	
393	398	78	O=C(N[C@@H]1CCCc2cc(CN3CCCCC3)ccc21)c1cccc(-c2coc3ccc(F)cc3c2=O)c1	
